According to article PMC5970182, “Enabling STD-NMR fragment screening using stabilized native GPCR: A case study of adenosine receptor” (Scientific Reports, 2018):

Key:
A2AR = target: T1, A2AR (Homo sapiens, UniProt P29274); experiment: STD-NMR binding and competition on purified native A2AR
T1 construct: Full length and wild type A2AR was expressed in yeast (Pichia pastoris) and Sf9; Strep-tag II (N); 8xHis (N); made in house; host or cells: Sf9 insect cells (baculovirus)

A2AR StaR = test system: A2AR StaR; parameters: method as in PMID 18664584, PMID 20624408; conditions: cited from earlier work
[1] = test system: Non-transfected HEK293 cells; experiment: cAMP assay in non-transfected HEK293 cells (negative control); assay type: cell-based, human; conditions: high concentrations of CGS-21680; probably endogenous A2AR
[2] = target: the molecule itself; experiment: SEC-MALS; peak 1 of the gel filtration of affinity-purified A2AR; Phenomenex Yarra SEC 3000-3 column, 20 °C, 0.3 ml/min; DDM/CHS micelles; dn/dc protein 0.185 ml/g, detergent 0.1618 ml/g

Cn1c(=O)c2c(ncn2C)n(C)c1=O [caffeine, reference compound]
STD binding signal (A2AR): bound to A2AR
STD binding signal in competition with ZM241385 (A2AR): binding signal of caffeine disappears

CCNC(=O)[C@H]1O[C@@H](n2cnc3c(N)nc(NCCc4ccc(CCC(=O)O)cc4)nc32)[C@H](O)[C@@H]1O [CGS-21680]
Binding of agonists to StaR preparation in comparison to the wild type protein (A2AR StaR): not able to bind correctly
cAMP production [1]: small increase in cAMP production

CCNC(=O)[C@H]1O[C@@H](n2cnc3c(N)ncnc32)[C@H](O)[C@@H]1O [NECA]
Binding of agonists to StaR preparation in comparison to the wild type protein (A2AR StaR): not able to bind correctly

B1: Wild type, full length human adenosine A2A receptor (receptor, UniProt P29274 1-412, looked up)
chain: MPIMGSSVYITVELAIAVLAILGNVLVCWAVWLNSNLQNVTNYFVVSLAAADIAVGVLAIPFAITISTGFCAACHGCLFIACFVLVLTQSSIFSLLAIAIDRYIAIRIPLRYNGLVTGTRAKGIIAICWVLSFAIGLTPMLGWNNCGQPKEGKNHSQGCGEGQVACLFEDVVPMNYMVYFNFFACVLVPLLLMLGVYLRIFLAARRQLKQMESQPLPGERARSTLQKEVHAAKSLAIIVGLFALCWLPLHIINCFTFFCPDCSHAPLWLMYLAIVLSHTNSVVNPFIYAYRIREFRQTFRKIIRSHVLRQQEPFKAAGTSARVLAAHGSDGEQVSLRLNGHPPGVWANGSAPHPERRPNGYALGLVSGGSAQESQGNTGLPDVELLSHELKGVCPEPPGLDDPLAQDGAGVS
modifications: N-glycans attached (sites not given)
notes: adenosine A2A receptor, human, full length, wild type; Peak 2 of the gel filtration also holds a faster band consistent with a degradation product; also called native A2AR
stoichiometry N [2]: ~5
